In patent publication US20100041089A1, “IMPROVED METHOD FOR DETECTING CHEMICAL […]” (priority 2006, published 2010):

Test system: yeast genes (expressed mRNA)
Assay: DNA chip measurement of expressed mRNA of yeast genes after culture with a toxic chemical substance
Type: cell-based, Saccharomyces cerevisiae S288C
Procedure, shortened: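 Fluorescence ratio, treated over untreated, read by chip scanner; ratio of two or more counted significant. Cells: S288C yeast, YPD, 25° C, chemical added at log phase for 2 h at growth-inhibiting, sublethal level. Cy3/Cy5-labeled cDNA from oligo-dT-purified mRNA.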

SMILES: CCCCC[C@H](O)CC(=O)CCc1ccc(O)c(OC)c1 [(13), Gingerol]
- The level of expressed mRNA in the presence of chemical substance/The level of expressed mRNA in the absence of chemical substance, yeast gene YDL067C (gene YDL067C (mitochondria-located protein gene), yeast cultured two hours with chemical substance, DNA chip fluorescence ratio to control): 0.6
- The level of expressed mRNA in the presence of chemical substance/The level of expressed mRNA in the absence of chemical substance, yeast gene YDR079W (gene YDR079W (mitochondria-located protein gene), yeast cultured two hours with chemical substance, DNA chip fluorescence ratio to control): 1.3
- level of expressed mRNA in the presence of chemical substance / level in the absence of chemical substance (yeast gene YAL018C, cultured two hours with the chemical substance): 1.3
- The level of expressed mRNA in the presence of chemical substance/The level of expressed mRNA in the absence of chemical substance (yeast gene YAR028W, cultured two hours with substance): 1.4
- level of expressed mRNA in the presence of chemical substance / level in the absence of chemical substance (yeast gene YAR047C, cultured two hours with the chemical substance): 1.4
- level of expressed mRNA in the presence of chemical substance / level in the absence of chemical substance (yeast gene YAR064W, cultured two hours with the chemical substance): 1.1
- level of expressed mRNA in the presence of chemical substance / level in the absence of chemical substance (yeast gene YBL044W, cultured two hours with the chemical substance): 0.7
- The level of expressed mRNA in the presence of chemical substance/The level of expressed mRNA in the absence of chemical substance (yeast gene YBL048W, cultured two hours with substance): 2.7
- level of expressed mRNA in the presence of chemical substance / level in the absence of chemical substance (yeast gene YBR012C, cultured two hours with the chemical substance): 2.1
- The level of expressed mRNA in the presence of chemical substance/The level of expressed mRNA in the absence of chemical substance (yeast gene YBR047W, cultured two hours with substance): 1.7
- The level of expressed mRNA in the presence of chemical substance/The level of expressed mRNA in the absence of chemical substance (yeast gene YBR062C, cultured two hours with substance): 2.8
- level of expressed mRNA in the presence of chemical substance / level in the absence of chemical substance (yeast gene YBR066C, cultured two hours with the chemical substance): 0.6
- level of expressed mRNA in the presence of chemical substance / level in the absence of chemical substance (yeast gene YBR124W, cultured two hours with the chemical substance): 0.9
- level of expressed mRNA in the presence of chemical substance / level in the absence of chemical substance (yeast gene YBR162C, cultured two hours with the chemical substance): 0.7
- The level of expressed mRNA in the presence of chemical substance/The level of expressed mRNA in the absence of chemical substance (yeast gene YBR185C, mitochondria-located protein gene, cultured two hours with substance): 1.0
- level of expressed mRNA in the presence of chemical substance / level in the absence of chemical substance (yeast gene YBR287W, cultured two hours with the chemical substance): 3.4
- level of expressed mRNA in the presence of chemical substance / level in the absence of chemical substance (yeast gene YCL042W, cultured two hours with the chemical substance): 7.5
- level of expressed mRNA in the presence of chemical substance / level in the absence of chemical substance (yeast gene YCL056C, cultured two hours with the chemical substance): 1.3
- level of expressed mRNA in the presence of chemical substance / level in the absence of chemical substance (yeast gene YCR007C, cultured two hours with the chemical substance): 1.5
- The level of expressed mRNA in the presence of chemical substance/The level of expressed mRNA in the absence of chemical substance (yeast gene YCR030C, cultured two hours with the chemical substance): 1.7
- level of expressed mRNA in the presence of chemical substance / level in the absence of chemical substance (yeast gene YDL046W, cultured two hours with the chemical substance): 1.5
- The level of expressed mRNA in the presence of chemical substance/The level of expressed mRNA in the absence of chemical substance (yeast gene YDL174C, cultured for two hours with substance): 5.9
- The level of expressed mRNA in the presence of chemical substance/The level of expressed mRNA in the absence of chemical substance (yeast gene YDR001C, cultured for two hours with substance): 2.8
- level of expressed mRNA in the presence of chemical substance / level in the absence of chemical substance (yeast gene YDR090C, cultured two hours with the chemical substance): 0.8
- level of expressed mRNA in the presence of chemical substance / level in the absence of chemical substance (yeast gene YDR128W, cultured two hours with the chemical substance): 1.1
- level of expressed mRNA in the presence of chemical substance / level in the absence of chemical substance (yeast gene YDR133C, cultured two hours with the chemical substance): 0.1
- The level of expressed mRNA in the presence of chemical substance/The level of expressed mRNA in the absence of chemical substance (yeast gene YDR214W, cultured two hours with substance): 5.3
- level of expressed mRNA in the presence of chemical substance / level in the absence of chemical substance (yeast gene YDR250C, cultured two hours with the chemical substance): 1.2
- level of expressed mRNA in the presence of chemical substance / level in the absence of chemical substance (yeast gene YDR278C, cultured two hours with the chemical substance): 0.7
- level of expressed mRNA in the presence of chemical substance / level in the absence of chemical substance (yeast gene YDR281C, cultured two hours with the chemical substance): 0.7
- level of expressed mRNA in the presence of chemical substance / level in the absence of chemical substance (yeast gene YDR366C, cultured two hours with the chemical substance): 0.8
- The level of expressed mRNA in the presence of chemical substance/The level of expressed mRNA in the absence of chemical substance (yeast gene YDR377W, mitochondria-located protein gene, cultured two hours with substance): 0.7
- The level of expressed mRNA in the presence of chemical substance/The level of expressed mRNA in the absence of chemical substance (yeast gene YDR486C, cultured two hours with substance): 1.7
- The level of expressed mRNA in the presence of chemical substance/The level of expressed mRNA in the absence of chemical substance (yeast gene YDR506C): 0.3
- The level of expressed mRNA in the presence of chemical substance/The level of expressed mRNA in the absence of chemical substance (yeast gene YDR533C, cultured two hours with substance): 3.0
- The level of expressed mRNA in the presence of chemical substance/The level of expressed mRNA in the absence of chemical substance (yeast gene YEL024W, mitochondria-located protein gene, cultured two hours with substance): 0.6
- The level of expressed mRNA in the presence of chemical substance/The level of expressed mRNA in the absence of chemical substance (yeast gene YER037W, cultured two hours with substance): 3.0
- The level of expressed mRNA in the presence of chemical substance/The level of expressed mRNA in the absence of chemical substance (yeast gene YER079W, cultured two hours with substance): 2.1
- The level of expressed mRNA in the presence of chemical substance/The level of expressed mRNA in the absence of chemical substance (yeast gene YFL014W, DNA repair protein genes, cultured two hours with substance): 15.2
- The level of expressed mRNA in the presence of chemical substance/The level of expressed mRNA in the absence of chemical substance (yeast gene YFL032W, cultured two hours with substance): 2.4
- The level of expressed mRNA in the presence of chemical substance/The level of expressed mRNA in the absence of chemical substance (yeast gene YFL044C, cultured two hours with substance): 4.7
- The level of expressed mRNA in the presence of chemical substance/The level of expressed mRNA in the absence of chemical substance (yeast gene YFR017C, cultured two hours with substance): 1.7
- level of expressed mRNA in the presence of chemical substance / level in the absence of chemical substance (yeast gene YFR026C, cultured two hours with the chemical substance): 1.1
- The level of expressed mRNA in the presence of chemical substance/The level of expressed mRNA in the absence of chemical substance (yeast gene YFR044C, cultured two hours with substance): 3.1
- The level of expressed mRNA in the presence of chemical substance/The level of expressed mRNA in the absence of chemical substance (yeast gene YGL037C, cultured two hours with substance): 2.3
- level of expressed mRNA in the presence of chemical substance / level in the absence of chemical substance (yeast gene YGL088W, cultured two hours with the chemical substance): 0.7
- The level of expressed mRNA in the presence of chemical substance/The level of expressed mRNA in the absence of chemical substance (yeast gene YGL187C, mitochondria-located protein gene, cultured two hours with substance): 0.7
- The level of expressed mRNA in the presence of chemical substance/The level of expressed mRNA in the absence of chemical substance (yeast gene YGL191W, mitochondria-located protein gene, cultured two hours with substance): 1.1
- level of expressed mRNA in the presence of chemical substance / level in the absence of chemical substance (yeast gene YGR038W, cultured two hours with the chemical substance): 1.2
- The level of expressed mRNA in the presence of chemical substance/The level of expressed mRNA in the absence of chemical substance (yeast gene YGR043C, cultured for two hours with substance): 6.9
- The level of expressed mRNA in the presence of chemical substance/The level of expressed mRNA in the absence of chemical substance (yeast gene YGR101W, cultured two hours with substance): 2.4
- The level of expressed mRNA in the presence of chemical substance/The level of expressed mRNA in the absence of chemical substance (yeast gene YGR110W, cultured two hours with substance): 3.6
- level of expressed mRNA in the presence of chemical substance / level in the absence of chemical substance (yeast gene YGR139W, cultured two hours with the chemical substance): 0.4
- The level of expressed mRNA in the presence of chemical substance/The level of expressed mRNA in the absence of chemical substance (yeast gene YGR146C, cultured two hours with substance): 1.7
- The level of expressed mRNA in the presence of chemical substance/The level of expressed mRNA in the absence of chemical substance (yeast gene YGR154C, cultured two hours with substance): 2.5
- The level of expressed mRNA in the presence of chemical substance/The level of expressed mRNA in the absence of chemical substance (yeast gene YGR161C, cultured two hours with substance): 2.8
- The level of expressed mRNA in the presence of chemical substance/The level of expressed mRNA in the absence of chemical substance (yeast gene YGR231C, DNA repair protein genes, cultured two hours with substance): 3.9
- level of expressed mRNA in the presence of chemical substance / level in the absence of chemical substance (yeast gene YGR243W, cultured two hours with the chemical substance): 1.1
- The level of expressed mRNA in the presence of chemical substance/The level of expressed mRNA in the absence of chemical substance (yeast gene YGR256W, cultured for two hours with substance): 3.9
- The level of expressed mRNA in the presence of chemical substance/The level of expressed mRNA in the absence of chemical substance (yeast gene YGR268C, cultured two hours with substance): 2.8
- level of expressed mRNA in the presence of chemical substance / level in the absence of chemical substance (yeast gene YGR293C, cultured two hours with the chemical substance): 0.7
- level of expressed mRNA in the presence of chemical substance / level in the absence of chemical substance (yeast gene YHL006C, cultured two hours with the chemical substance): 1.1
- level of expressed mRNA in the presence of chemical substance / level in the absence of chemical substance (yeast gene YHR095W, cultured two hours with the chemical substance): 0.7
- level of expressed mRNA in the presence of chemical substance / level in the absence of chemical substance (yeast gene YHR105W, cultured two hours with the chemical substance): 1.4
- level of expressed mRNA in the presence of chemical substance / level in the absence of chemical substance (yeast gene YHR181W, cultured two hours with the chemical substance): 0.7
- The level of expressed mRNA in the presence of chemical substance/The level of expressed mRNA in the absence of chemical substance (yeast gene YHR199C, cultured two hours with substance): 2.1
- The level of expressed mRNA in the presence of chemical substance/The level of expressed mRNA in the absence of chemical substance (yeast gene YIL087C, cultured two hours with substance): 2.4
- The level of expressed mRNA in the presence of chemical substance/The level of expressed mRNA in the absence of chemical substance (yeast gene YIL122W, cultured two hours with the chemical substance): 0.7
- level of expressed mRNA in the presence of chemical substance / level in the absence of chemical substance (yeast gene YIL127C, cultured two hours with the chemical substance): 0.4
- level of expressed mRNA in the presence of chemical substance / level in the absence of chemical substance (yeast gene YJL017W, cultured two hours with the chemical substance): 1.5
- level of expressed mRNA in the presence of chemical substance / level in the absence of chemical substance (yeast gene YJL037W, cultured two hours with the chemical substance): 1.1
- The level of expressed mRNA in the presence of chemical substance/The level of expressed mRNA in the absence of chemical substance (yeast gene YJL057C, cultured two hours with substance): 2.5
- The level of expressed mRNA in the presence of chemical substance/The level of expressed mRNA in the absence of chemical substance (yeast gene YJL082W, cultured two hours with substance): 2.1
- level of expressed mRNA in the presence of chemical substance / level in the absence of chemical substance (yeast gene YJL097W, cultured two hours with the chemical substance): 0.7
- The level of expressed mRNA in the presence of chemical substance/The level of expressed mRNA in the absence of chemical substance (yeast gene YJL144W, cultured two hours with substance): 3.9
- The level of expressed mRNA in the presence of chemical substance/The level of expressed mRNA in the absence of chemical substance (yeast gene YJL151C, cultured two hours with substance): 2.4
- The level of expressed mRNA in the presence of chemical substance/The level of expressed mRNA in the absence of chemical substance (yeast gene YJL161W, cultured two hours with substance): 2.5
- level of expressed mRNA in the presence of chemical substance / level in the absence of chemical substance (yeast gene YJR030C, cultured two hours with the chemical substance): 0.7
- The level of expressed mRNA in the presence of chemical substance/The level of expressed mRNA in the absence of chemical substance (yeast gene YJR046W, DNA repair protein genes, cultured two hours with substance): 3.0
- The level of expressed mRNA in the presence of chemical substance/The level of expressed mRNA in the absence of chemical substance (yeast gene YJR074W, cultured two hours with substance): 2.8
- The level of expressed mRNA in the presence of chemical substance/The level of expressed mRNA in the absence of chemical substance (yeast gene YJR121W, mitochondria-located protein gene, cultured two hours with substance): 1.0
- The level of expressed mRNA in the presence of chemical substance/The level of expressed mRNA in the absence of chemical substance (yeast gene YJR123W): 0.1
- level of expressed mRNA in the presence of chemical substance / level in the absence of chemical substance (yeast gene YKL051W, cultured two hours with the chemical substance): 1.2
